From ChEMBL document CHEMBL3351910, “Two new antioxidant actinosporin analogues from the calcium alginate beads culture of sponge-associated Actinokineospora sp. strain EG49” (Bioorg Med Chem Lett, 2014) come the findings set out here.

Data set [1] can be described thus: Cytotoxicity against human HL60 cells assessed as induction of DNA damage at 1.25 to 10 uM after 24 hrs by fluorescence microscopy. Conditions: hl-60, 24 h. It counts as cell-based.
Data set [2] has as its system HL-60. The data set is described as follows: Protection against H2O2-induced human HL60 cells assessed as reduction in DNA damage at 1.25 uM after 30 mins by comet assay. The format is functional, cell-based.
Data set [3] can be described thus: Cytotoxicity against human HL60 cells assessed as cell viability up to 50 uM after 24 hrs by fluorescence microscopy. It counts as cell-based. Conditions: hl-60, 24 h.
The nature of data set [4]: Cytotoxicity against human HL60 cells assessed as cell viability up to 50 uM after 4 hrs by fluorescence microscopy. Conditions: hl-60, 4 h. It counts as cell-based.
Data set [5] has as its system HL-60. The data set is described as follows: Protection against H2O2-induced human HL60 cells assessed as reduction in DNA damage at 2.5 uM after 30 mins by comet assay. The format is functional, cell-based.
Data set [6] deals with HL-60. The data set is described as follows: Protection against H2O2-induced human HL60 cells assessed as reduction in DNA damage at 10 uM after 30 mins by comet assay. It counts as functional, cell-based.
A short description of data set [7]: Antioxidant activity assessed as ferric ion reducing activity at 2 nM to 200 uM by FRAP assay. It counts as physicochemical. The conditions noted are these: 0.002 µM.
Data set [8] concerns Trypanosoma brucei brucei. The data set is described as follows: Antiparasitic activity against Trypanosoma brucei brucei. It counts as functional, organism-based.
Data set [9] deals with HL-60. The data set is described as follows: Protection against H2O2-induced human HL60 cells assessed as reduction in DNA damage at 50 uM after 30 mins by comet assay. The format is functional, cell-based.

Calls of active or inactive are those of the source. No cut-off for these calls is given here.

As for `Cc1cc(O[C@@H]2O[C@@H](C)[C@H](O)[C@@H](O)[C@H]2O)c2c3c(ccc2c1)C(=O)c1c(O[C@@H]2O[C@@H](C)[C@H](O)[C@@H](O)[C@H]2O)cccc1C3=O`, the Activity entry in data set [1] is recorded as “Non-toxic”; in data set [3], “Non-toxic”; in data set [4], “Non-toxic”; in data set [7] it was “Active”. In addition, the result in [2], in data set [5] and in data set [6] was Active. The inhibition result in data set [8] is “inactive”.
Regarding `CC1(C)CC(O)CC(C)(C)N1[O]`, the result in data set [9] was Active.
Consider `Cc1cc(O[C@@H]2O[C@@H](C)[C@H](O)[C@@H](O)[C@H]2O)c2c3c(c(O)cc2c1)C(=O)c1c(O[C@@H]2O[C@@H](C)[C@H](O)[C@@H](O)[C@H]2O)cccc1C3=O`, for which the Activity result in data set [1] is “Non-toxic”; in [3] it was “Toxic”; in [4], “Non-toxic”; in data set [7], “Active”. Moreover, the result in [2], in data set [5] and in data set [6] was Active. Further, the inhibition result in data set [8] was “inactive”.
Regarding `Cc1cc(O[C@@H]2O[C@@H](C)[C@H](O)[C@@H](O)[C@H]2O)c2c3c(c(O[C@@H]4O[C@@H](C)[C@H](O)[C@@H](O)[C@H]4O)cc2c1)C(=O)c1c(O)cccc1C3=O`, in data set [8], the IC50 came to 15 µM.

For orientation: IC50 means the point on the concentration scale where inhibition reaches its midpoint.
